The values below come from patent US20250332212A1, “METHOD FOR TREATING OR PREVENTING ALOPECIA” (Suzhou Mingren Pharmaceutical Biotechnology Co., Ltd., priority 2024, published 2025).

Square brackets hold non-standard residues; d marks the D form. Ends that are not written are not given here. pS = N[C@@H](COP(=O)(O)O)C(=O)O

In one data set the test system is Wnt10a. As to the kind of experiment: Wnt10a expression in skin tissue (qPCR, Western blotting). The class given is in vivo, mouse. The protocol:
(§1) To illustrate the regulation of JP1 on the upstream Wnt ligand of β-catenin, this example intersected classical signaling pathway-related Wnt ligands and AGA-related Wnt ligands, and screened out the related Wnt ligands, including Wnt1, Wnt3a, Wnt7b, Wnt10a, and Wnt10b. In this example, qPCR was used to detect the mRNA expression of these Wnt molecules in the skin tissue of the mouse model in Example 6.
(§2) 4.1) Protein extraction: 70 mg of skin tissue was placed in a 1.5 mL centrifuge tube, and 500 μL of tissue lysate RIPA containing protease inhibitor and phosphatase inhibitor was added. The tissue was placed on an ice box, pulverized by a tissue grinder, and then ultrasonically crushed to obtain a tissue suspension, which was then placed in a rotary windmill at 4° C. to be lysed for 2 h. The centrifuge was set at 12,000×g, 4° C., centrifuged for 15 min, and the supernatant was collected as the total protein.
(§3) 5.1) Heating of protein samples: the total protein content of each tissue was 50 μg; calculate the volume of a corresponding protein sample, make up the volume with saline to 16 μL, then add 4 μL of 5×SDS sampling buffer, heat at 100° C. for 5 min, and then cool at room temperature and store at −20° C. […]
(§4) 7.3) Relative mRNA expression levels of genes were calculated by the […] relative quantification method using GAPDH as an internal reference.

The next data set deals with Lef1. As to the kind of experiment: qPCR of Lef1 mRNA in skin tissue. The class given is in vivo, mouse. The protocol:
6.1) Sample preparation: 15-20 mg of mouse skin tissue was placed in a 1.5 mL centrifuge tube, and 600 μL of pre-cooled lysate was quickly added, and homogenized with an electric homogenizer. The homogenate obtained was blown gently 10 times, left at room temperature for 3-5 min, then centrifuged at 14,000×g for 5 min, and the supernatant was transferred to a new centrifuge tube with a pipette gun of suitable volume.
(§5) 7.1) Dilute the specific gene amplification primers to 10 µM in ddH2O, prepare the qPCR reaction system according to the instructions in the kit and add them sequentially into a 384-well plate.
as §4

The subject of a further data set is E2F1. As to the kind of experiment: qPCR of E2F1 mRNA in skin tissue. The class given is in vivo, mouse. To be noted: after JP1 intervention, P<0.01. How it is done:
as §5, §4

The test system of data set [1] is TP-induced AGA model mice. As to the kind of experiment: TP-induced AGA model, Animal model I (JP1 intraperitoneal or topical skin-coating). The format is in vivo, C57BL/6J male mice. An excerpt: C57BL/6 mice were selected for modeling in this example according to the first design scheme (FIG. 1A). For more details, see “Animal model I” of “1. TP-induced AGA model” in “Experimental Methods” below.
The mice used in this study were 5-week-old C57BL/6J male mice (18-20 g), which were purchased from Jiangsu Jicui Pharmachem Biotechnology Co. All the animals used in the experiments were housed in the SPF-level environment of the Medical Laboratory Animal Center of Nanjing Medical University, and the relevant animal experimental operations were approved by the Animal Ethics Committee of Nanjing Medical University. The control group was left untreated, and the other groups were injected with TP subcutaneously on their backs every day. Two weeks later, the hair on the backs of the mice was shaved with an electric razor, covering an area of 2 cm×4 cm, and then the residual hair was removed with a hair removal cream. The subcutaneous injections of TP on the shaved backs of the mice in the AGA model was continued until the end of the experimental period, and the administration of TP in each of the treatment groups was begun on the 1st day of the dehairing process.
In addition to the normal control group (denoted as control) n=3, all mice injected subcutaneously with TP were randomly divided into the following groups (n=3): the model group (denoted as model), the 1 wt. % JP1 and 2% JP1 (intraperitoneal), the 1% JP1 and 2% JP1 (topical skin-coating, denoted as apply), the 5% minoxidil group, and the 2% JP1 (intraperitoneal) combined with 5% minoxidil group. The mice were administered continuously for 35 days, euthanized.
Mice were weighed every two days during the experiment. Skin color was assessed against skin score charts. The mice were euthanized and treated at the end of the experiment, and skin tissues were taken from the dorsal decorticated area of the mice. Some of the tissues were fixed with 4% paraformaldehyde solution and then paraffin sections were made for H&E or immunofluorescence staining, etc., and some of the tissues were stored in the refrigerator at −80° C. for relevant molecular expression assays (qRT-PCR, Western Blot, IP, etc.).
8.1) Sampling and fixation: After the experiment, skin tissue was taken from the depilated area on the back of the mouse and placed in a 10 mL EP tube. 4% paraformaldehyde was added to the EP tube, and all tissues were immersed to denature and coagulate the proteins of the skin tissue. The original morphology and structure of the cells were maintained.
8.6) H&E staining: the sections pretreated in distilled water were put into aqueous hematoxylin solution for a few minutes for staining. The color was separated in acid water and ammonia for a few seconds each. After rinsing in running water for 1 h, the sections were placed in distilled water for a few moments. The sections were dehydrated in 70% and 90% alcohol for 10 min each, and stained in alcoholic eosin stain for 2-3 min.

In another data set the test system is p-ERK. As to the kind of experiment: Immunoblotting of p-ERK in skin tissue. The class given is in vivo, mouse. Particulars: P<0.05, dose-effect relationship. The protocol: as §2
(§6) 5.1) Heating of protein samples: the total protein content of each tissue was 50 μg; calculate the volume of a corresponding protein sample, make up the volume with saline to 16 μL, then add 4 μL of 5×SDS sampling buffer, heat at 100° C. for 5 min, and then cool at room temperature and store at −20° C.
5.7) Primary antibody incubation: the cut protein bands were placed into the corresponding primary antibody and incubated at 4° C. on a shaker overnight, washed with TBST 3 times for 10 min/time.

Another data set relates to integrin β1. As to the kind of experiment: Integrin β1 expression in skin tissue (qPCR, immunoblotting, immunofluorescence). The class given is in vivo, mouse.
Description: In this example, the mRNA expression levels of RGD-targeting molecules in the skin tissues of three groups of mice, namely, the AGA model control group, the model group and the JP1-treated group, were further examined.
To verify whether JP1 targeted integrin molecules are localized in hair follicles in the skin tissue, this example detected the expression levels, tissue localization, and distribution of integrin αv and integrin β1 in the skin tissue of the mouse model in Example 6 using immunofluorescence staining.
as §2, §6, §5, §4
9.5) Primary antibody incubation: the tissue was circled by the histochemical pen, about 50 μL of primary antibody was added dropwise to the tissue, and incubated in a wet box overnight at 4° C., washed 3 times with PBS.

Another data set has as its system Wnt10b. As to the kind of experiment: Wnt10b expression in skin tissue (qPCR, Western blotting). The format is in vivo, mouse. The protocol:
as §1, §2, §3, §4

The mark [2] stands for this setting: Western blotting, dose-dependent.
[3] abbreviates: H&E longitudinal section, each JP1 treatment group vs model and solvent groups.

As for “FPGSDRF-RGD (FPG[pS]DRFRGD) [JP1, amino acid S is phosphorylated; JWA peptide]”, the Wnt10a protein expression entry in the data set on Wnt10a (setting [2]) was “significantly up-regulated”. Moreover, the “Wnt10a mRNA expression” value with Wnt10a (qPCR, P<0.05) was “elevated with a dose-effect relationship”. For the same substance, the “Lef1 mRNA expression vs model group” value with Lef1 is “increased”. In addition, the “E2F1 mRNA level expression” value in the data set on E2F1 is reported as “elevated”. The “hair growth index (skin color score) vs model group” value in data set [1] (1% JP1, intraperitoneal injection, P>0.05) is given as “statistically not significant”; in data set [1] (2% JP1 (apply), topical skin coating, P<0.05) it was “higher than that of the model group”; in data set [1] (2% JP1, intraperitoneal injection, P<0.001), “significantly higher than that of the model group”. Moreover, the “hair growth index (skin color score) vs solvent group (vehicle (apply))” value in data set [1] (2% JP1 (apply), topical skin coating) is on record as “higher than that of the solvent group”. For the same substance, the “hair growth (skin appearance on the back)” value in data set [1] (AGA mice, JP1 injected intraperitoneally or applied to the skin) was “promoted hair growth”. The dermal layer thickness entry in data set [1] (setting [3]) was “increased dermal layer thickness”. The hair follicle length entry in data set [1] (setting [3]) was “longer hair follicle length”. In addition, in data set [1] (during mouse modeling, P>0.05), the “difference in body weight gain between groups” value was “not statistically significant”. Further, the “effect on hair follicle cycle relative to minoxidil” value in data set [1] (skin of AGA model mice) was “comparable to the effect of minoxidil”. The “hair follicle cycle (resting phase / anagen phase)” value in data set [1] (skin of AGA model mice) was “shorten the resting phase of the hair follicle”. Further, the p-ERK expression level entry in the data set with p-ERK is on record as “elevated”. The “integrin β1 expression, immunofluorescence staining” value in the data set on integrin β1 (each JP1 intervention group, localized in the site of hair follicles) is on record as “elevated”. Also, the “integrin β1 protein level (TP-down-regulated)” value with integrin β1 (skin tissue, immunoblotting, JP1 P<0.01) was “reversed”. The “integrin β1 expression at the end of the model” value in the data set with integrin β1 (skin tissue, qPCR, P<0.01) was “returned to control levels”. In addition, in the data set with integrin β1 (skin tissue, qPCR, decreased in TP model group, P<0.01), the “integrin β1 mRNA expression after JP1 intervention” value is “significantly elevated”. Further, the Wnt10b protein expression entry in the data set with Wnt10b (setting [2]) is on record as “significantly up-regulated”. Further, the “Wnt10b mRNA expression” value with Wnt10b (qPCR, P<0.05) is “elevated with a dose-effect relationship”.
